In US8835428B2, “Diacylglycerol acyltransferase inhibitors” (Piramal Enterprises Limited, priority 2008, dated 2014):

Molecular target: T1, hDGAT1 (Homo sapiens, UniProt O75907)
T1 construct: host or cells: Sf9 insect cells (baculovirus); microsomal preparation
T1 sequence (O75907 1-488): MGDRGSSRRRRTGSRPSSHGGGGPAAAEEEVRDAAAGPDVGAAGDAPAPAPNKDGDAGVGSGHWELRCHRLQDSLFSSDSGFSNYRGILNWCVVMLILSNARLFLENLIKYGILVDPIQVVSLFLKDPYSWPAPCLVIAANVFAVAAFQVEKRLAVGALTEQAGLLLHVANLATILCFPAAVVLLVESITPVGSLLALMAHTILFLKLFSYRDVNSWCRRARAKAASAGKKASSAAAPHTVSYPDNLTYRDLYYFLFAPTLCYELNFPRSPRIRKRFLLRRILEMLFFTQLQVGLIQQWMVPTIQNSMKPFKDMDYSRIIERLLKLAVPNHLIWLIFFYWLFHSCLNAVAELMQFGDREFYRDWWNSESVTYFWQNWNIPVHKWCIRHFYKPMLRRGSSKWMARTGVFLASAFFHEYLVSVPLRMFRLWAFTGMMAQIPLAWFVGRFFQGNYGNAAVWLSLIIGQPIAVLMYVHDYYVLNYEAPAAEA
Assay: In-vitro DGAT1 assay (hDGAT1 microsomes from Sf9 cells, 14C oleoyl CoA, triglyceride formation)
Format: biochemical
In short: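 Human DGAT1 in baculovirus-infected Sf9 microsomes (2.5–10 μg), [14C]oleoyl-CoA with 409.5, 1228.5 or 1638 μM 1,2-dioleoyl-sn-glycerol, Tris-HCl pH 7.4 buffer with BSA. Compounds screened at 10, 5 and 1 μM in duplicate. Reaction 10 min at 37 °C; heptane-extracted [14C]triglyceride counted by scintillation.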

SMILES | inhibition at 10 µM | inhibition at 1 µM | also measured
O=C(N[C@@H](CO)C(=O)O)c1cc(-c2ccc(Nc3nc4ccc(F)cc4s3)cc2)no1 [Example 10, (S)-2-({3-[4-(6-Fluoro-benzothiazol-2-ylamino)-phenyl]-isoxazole-5-carbonyl}-amino)-3-hydroxy-propionic acid] | 50 to 75% |  | 
CC(C)C(NC(=O)c1cc(-c2ccc(NC(=O)Nc3ccc(OC(F)(F)F)cc3Cl)cc2)no1)C(=O)O (stereo not shown) [Example 287, 2-(3-(4-(3-(2-chloro-4-(trifluoromethoxy)phenyl)ureido)phenyl)isoxazole-5-carboxamido)-3-methylbutanoic acid] |  | 75 to 100% | 
CC(C)[C@H](NC(=O)c1csc(-c2ccc(NC(=O)Nc3ccccc3Cl)cc2)n1)C(=O)O [Example 369, (S)-2-(2-(4-(3-(2-Chlorophenyl)ureido)phenyl)thiazole-4-carboxamido)-3-methylbutanoic acid] |  | 0 to 50% | 
COC(=O)[C@@H](NC(=O)c1nc(-c2ccc(NC(=O)Nc3ccccc3F)cc2)no1)C(C)C [Example 348, (S)-methyl 2-(3-(4-(3-(2-fluorophenyl)ureido)phenyl)-1,2,4-oxadiazole-5-carboxamido)-3-methylbutanoate] |  |  | inhibition at 5 µM: 0 to 50%
COC(=O)C(NC(=O)c1cc(-c2ccc(NC(=O)NCc3ccccc3)cc2)no1)C(C)C (stereo not shown) [Example 107, Methyl 2-(3-(4-(3-benzylureido)phenyl)isoxazole-5-carboxamido)-3-methylbutanoate] | 0 to 50% |  | 
COc1ccc(NC(=O)Nc2ccc(-c3cc(C(=O)N[C@H](C(=O)O)C(C)C)on3)cc2)c(OC)c1 [Example 169, (S)-2-(3-(4-(3-(2,4-dimethoxyphenyl)ureido)phenyl)isoxazole-5-carboxamido)-3-methylbutanoic acid] |  | 50 to 75% | 
O=C(O)[C@@H]1CCCN1C(=S)c1cc(-c2cccc(Nc3nc4ccc(F)cc4s3)c2)no1 [Example 37, (S)-1-{3-[3-(6-Fluoro-benzothiazol-2-ylamino)-phenyl]-isoxazole-5-carbothioyl}-pyrrolidine-2-carboxylic acid] | 0 to 50% |  | 
CC(C)[C@H](NC(=O)c1cc(-c2ccc(NC(=O)Nc3ccc(F)cc3C(F)(F)F)cc2)no1)C(=O)O [Example 213, (S)-2-(3-(4-(3-(4-fluoro-2-(trifluoromethyl)phenyl)ureido)phenyl)isoxazole-5-carboxamido)-3-methylbutanoic acid] |  | 50 to 75% | 
Cc1ccc(F)c(NC(=O)Nc2ccc(-c3cc(C(=O)NC(C(=O)O)C(C)C)on3)cc2)c1 (stereo not shown) [Example 156, 2-(3-(4-(3-(2-fluoro-5-methylphenyl)ureido)phenyl)isoxazole-5-carboxamido)-3-methylbutanoic acid] |  | 75 to 100% | 
CC(C)CC(NC(=O)c1cc(-c2ccc(NC(=O)NCc3ccccc3)cc2)no1)C(=O)O (stereo not shown) [Example 110, 2-(3-(4-(3-Benzylureido)phenyl)isoxazole-5-carboxamido)-4-methyl pentanoic acid] | 0 to 50% |  | 
COC(=O)[C@H]1CCCN1C(=O)c1cc(-c2ccc(NC(=O)Nc3ccccc3F)cc2)no1 [Example 259, (R)-Methyl 1-(3-(4-(3-(2-fluorophenyl)ureido)phenyl)isoxazole-5-carbonyl)pyrrolidine-2-carboxylate] |  | 50 to 75% | 
COC(=O)[C@@H](NC(=O)c1nc(-c2ccc(NC(=O)NCc3ccccc3)cc2)no1)C(C)C [Example 352, (S)-methyl 2-(3-(4-(3-benzylureido)phenyl)-1,2,4-oxadiazole-5-carboxamido)-3-methylbutanoate] |  |  | inhibition at 5 µM: 0 to 50%
COC[C@H](NC(=S)c1c(-c2ccc(Nc3nc4ccc(F)cc4s3)cc2)noc1-c1ccccc1)C(=O)OC [Example 74, (S)-2-({3-[4-(6-Fluoro-benzothiazol-2-ylamino)-phenyl]-5-phenyl-isoxazole-4-carbothioyl}-amino)-3-methoxy-propionic acid methyl ester] | 0 to 50% |  | 
CC(C)[C@H](NC(=O)c1cc(-c2ccc(NC(=O)Nc3cc(Cl)ccc3Oc3ccccc3)cc2)no1)C(=O)O [Example 236, (S)-2-(3-(4-(3-(5-Chloro-2-phenoxyphenyl)ureido)phenyl)isoxazole-5-carboxamido)-3-methylbutanoic acid] |  | 75 to 100% | 
CC(C)[C@H](NC(=O)c1cc(-c2ccc(NC(=O)Nc3ccc(Cl)nc3)cc2)no1)C(=O)O [Example 207, (S)-2-(3-(4-(3-(6-chloropyridin-3-yl)ureido)phenyl)isoxazole-5-carboxamido)-3-methylbutanoic acid] |  | 0 to 50% | 
COC(=O)[C@@H](NC(=O)c1nc(-c2ccc(NC(=S)Nc3ccccc3F)cc2)no1)C(C)C [Example 355, (S)-methyl 2-(3-(4-(3-(2-fluorophenyl)thioureido)phenyl)-1,2,4-oxadiazole-5-carboxamido)-3-methylbutanoate] |  |  | inhibition at 5 µM: 50 to 75%

SMILES | inhibition at 10 µM | inhibition at 1 µM | also measured
CC(C)[C@H](NC(=O)c1csc(-c2ccc(NC(=O)Nc3ccc4c(c3)CCC4)cc2)n1)C(=O)O [Example 361, (S)-2-(2-(4-(3-(2,3-dihydro-1H-inden-5-yl)ureido)phenyl)thiazole-4-carboxamido)-3-methylbutanoic acid] |  | 0 to 50% | 
CC(C)[C@H](NC(=O)c1cc(-c2ccc(NC(=O)Nc3ccc(Oc4ccccc4)cc3)cc2)no1)C(=O)O [Example 240, (S)-3-Methyl-2-(3-(4-(3-(4-phenoxyphenyl)ureido)phenyl)isoxazole-5-carboxamido)butanoic acid] |  | 75 to 100% | 
Cc1cc(NC(=O)Nc2ccc(F)cc2F)ccc1-c1cc(C(=O)NC(CC(C)C)C(=O)O)on1 (stereo not shown) [Example 140, 2-(3-(4-(3-(2,4-difluorophenyl)ureido)-2-methylphenyl)isoxazole-5-carboxamido)-4-methylpentanoic acid] | 75 to 100% |  | 
COC(=O)C(NC(=O)c1cc(-c2ccc(NC(=O)Nc3ccc(F)cc3C)cc2)no1)C(C)C (stereo not shown) [Example 284, Methyl 2-(3-(4-(3-(4-fluoro-2-methylphenyl)ureido)phenyl)isoxazole-5-carboxamido)-3-methylbutanoate] |  |  | inhibition at 5 µM: 50 to 75%
Cc1cc(NC(=O)Nc2ccc(F)cc2F)ccc1-c1cc(C(=O)NC(C(=O)O)C(C)C)on1 (stereo not shown) [Example 138, 2-(3-(4-(3-(2,4-difluorophenyl)ureido)-2-methylphenyl)isoxazole-5-carboxamido)-3-methylbutanoic acid] | 75 to 100% |  | 
Cc1ccccc1NC(=O)Nc1ccc(-c2cc(C(=O)NC(C(=O)O)C(C)C)on2)cc1 (stereo not shown) [Example 154, 3-methyl-2-(3-(4-(3-o-tolylureido)phenyl)isoxazole-5-carboxamido) butanoic acid] |  |  | inhibition at 5 µM: 75 to 100%
CC(C)C(NC(=O)c1cc(-c2ccc(NC(=O)NCc3ccccc3)cc2)no1)C(=O)O (stereo not shown) [Example 108, 2-(3-(4-(3-Benzylureido)phenyl)isoxazole-5-carboxamido)-3-methylbutanoic acid] | 50 to 75% |  | 
COC(=O)[C@H](C(C)C)N(C)C(=O)c1cc(-c2ccc(NC(=O)Nc3ccccc3F)cc2)no1 [Example 305, (S)-Methyl 2-(3-(4-(3-(2-fluorophenyl)ureido)phenyl)-N-methylisoxazole-5-carboxamido)-3-methylbutanoate] |  | 50 to 75% | 
COC(=O)[C@@H](NC(=O)c1cc(-c2cccc(Nc3nc4ccc(F)cc4s3)c2)no1)C(C)C [Example 22, (S)-2-({3-[3-(6-Fluoro-benzothiazol-2-ylamino)-phenyl]-isoxazole-5-carbonyl}-amino)-3-methyl-butyric acid methyl ester] | 0 to 50% |  | 
COC(=O)C(NC(=O)c1cc(-c2ccc(NC(=O)NS(=O)(=O)c3ccccc3C)cc2)no1)C(C)C (stereo not shown) [Example 263, Methyl 3-methyl-2-(3-(4-(3-(o-tolylsulfonyl)ureido)phenyl)isoxazole-5-carboxamido)butanoate] |  |  | inhibition at 5 µM: 0 to 50%
Cc1cc(F)ccc1NC(=O)Nc1ccc(-c2cc(C(=O)NC(C(=O)O)C(C)C)on2)cc1 (stereo not shown) [Example 285, 2-(3-(4-(3-(4-fluoro-2-methylphenyl)ureido)phenyl)isoxazole-5-carboxamido)-3-methylbutanoic acid] |  |  | inhibition at 5 µM: 75 to 100%
COC(=O)[C@@H](NC(=O)c1nc(-c2ccc(NC(=S)Nc3ccc(F)cc3)cc2)no1)C(C)C [Example 354, (S)-Methyl 2-(3-(4-(3-(4-fluorophenyl)thioureido)phenyl)-1,2,4-oxadiazole-5-carboxamido)-3-methylbutanoate] |  |  | inhibition at 5 µM: 0 to 50%
COC(=O)C(NC(=O)c1cc(-c2ccc(NC(=O)Nc3ccc(C)cc3)cc2)no1)C(C)C (stereo not shown) [Example 125, Methyl 3-methyl-2-(3-(4-(3-p-tolylureido)phenyl)isoxazole-5-carboxamido)butanoate] | 50 to 75% |  | 
COC(=O)[C@H](NC(=O)c1cc(-c2ccc(NC(=O)Nc3ccccc3C#N)cc2)no1)C(C)C [Example 216, (R)-methyl 2-(3-(4-(3-(2-cyanophenyl)ureido)phenyl)isoxazole-5-carboxamido)-3-methylbutanoate] |  | 0 to 50% | 
COC(=O)C(C)NC(=O)c1cc(-c2ccc(NC(=O)Nc3c(F)cccc3F)c(C)c2)no1 (stereo not shown) [Example 101, Methyl 2-(3-(4-(3-(2,6-difluorophenyl)ureido)-3-methylphenyl)isoxazole-5-carboxamido)propanoate] | 0 to 50% |  | 
